In the CheMixHub viscosity set:

Experiment: xn = mol fraction of the nth substance listed

CCN(CC)CC + CCCCCC
viscosity [mPa·s], 101.33 kPa
Conditions | x1 = 0.1076 | x1 = 0.2064 | x1 = 0.4089 | x1 = 0.5106 | x1 = 0.6081 | x1 = 0.804 | x1 = 0.9018
303.15 K | 0.2744 | 0.276 | 0.2838 | 0.2911 | 0.3002 | 0.3248 | 0.3408
313.15 K | 0.2432 | 0.2489 | 0.2626 | 0.271 | 0.2799 | 0.3004 | 0.3125

ClC(Cl)(Cl)Cl + CCCCCC
298.15 K, 101 kPa
Conditions | viscosity [mPa·s]
x1 = 0.1 | 0.3171
x1 = 0.1729 | 0.3422
x1 = 0.2 | 0.3432
x1 = 0.3 | 0.3743
x1 = 0.3869 | 0.4102
x1 = 0.4 | 0.4105
x1 = 0.5 | 0.4532
x1 = 0.5869 | 0.5067
x1 = 0.6 | 0.5052
x1 = 0.7 | 0.5705
x1 = 0.7906 | 0.6461
x1 = 0.8 | 0.6544
x1 = 0.9 | 0.7635

CCN(CC)CC + CCCCCCC
303.15 K, 101 kPa
Conditions | viscosity [mPa·s]
x1 = 0.00966 | 0.3735
x1 = 0.01875 | 0.3719
x1 = 0.02995 | 0.3707
x1 = 0.0422 | 0.3687
x1 = 0.04845 | 0.3675
x1 = 0.05931 | 0.3663
x1 = 0.07022 | 0.365
x1 = 0.07742 | 0.3639
x1 = 0.08877 | 0.363
x1 = 0.09882 | 0.3622

CCN(CC)CC + CCCCCCCC
viscosity [mPa·s], 101.33 kPa
Conditions | x1 = 0.1983 | x1 = 0.4032 | x1 = 0.5055 | x1 = 0.6044 | x1 = 0.7987 | x1 = 0.9028
303.15 K | 0.4507 | 0.4233 | 0.411 | 0.3999 | 0.3795 | 0.3694
313.15 K | 0.3913 | 0.3701 | 0.3605 | 0.3523 | 0.3379 | 0.331

CCCOC(C)=O + CCCCCCCCCC
298.15 K, 101.33 kPa
Conditions | viscosity [mPa·s]
x2 = 0.0879 | 0.565
x2 = 0.1221 | 0.571
x2 = 0.1602 | 0.578
x2 = 0.2376 | 0.591
x2 = 0.3166 | 0.606
x2 = 0.3821 | 0.62
x2 = 0.4847 | 0.644
x2 = 0.6012 | 0.678
x2 = 0.715 | 0.718
x2 = 0.8476 | 0.776
x2 = 0.9258 | 0.817

ClC(Cl)(Cl)Cl + CCCCCCCCCCO
298.15 K, 101 kPa
Conditions | viscosity [mPa·s]
x2 = 0.05 | 1.031
x2 = 0.097 | 1.224
x2 = 0.15 | 1.441
x2 = 0.2 | 1.775
x2 = 0.39 | 3.091
x2 = 0.49 | 4.012
x2 = 0.59 | 5.08
x2 = 0.8 | 7.86

CCCC[N+](CCCC)(CCCC)CCCC.[I-] + CCCCCCCCCO
101.3 kPa, x1 = 0.0476
Conditions | viscosity [mPa·s]
293.15 K | 16.29
298.15 K | 13.16
303.15 K | 10.92
308.15 K | 9.085
313.15 K | 7.675
318.15 K | 6.439
323.15 K | 5.529

CCCOC(C)=O + CCCCCCCCO
viscosity [mPa·s], 101 kPa
Conditions | x2 = 0.075 | x2 = 0.1542 | x2 = 0.2382 | x2 = 0.3272 | x2 = 0.4218 | x2 = 0.5225 | x2 = 0.6299 | x2 = 0.7448 | x2 = 0.8678
298.15 K | 0.692 | 0.851 | 1.053 | 1.316 | 1.666 | 2.143 | 2.823 | 3.811 | 5.28
303.15 K | 0.638 | 0.776 | 0.955 | 1.185 | 1.488 | 1.897 | 2.47 | 3.302 | 4.526
308.15 K | 0.584 | 0.705 | 0.862 | 1.061 | 1.323 | 1.671 | 2.154 | 2.848 | 3.868
313.15 K | 0.533 | 0.638 | 0.774 | 0.95 | 1.177 | 1.475 | 1.885 | 2.468 | 3.326

ClC(Cl)(Cl)Cl + CCCCCCCCO
viscosity [mPa·s], 101 kPa
Conditions | 298.15 K | 308.15 K | 318.15 K
x2 = 0.023 | 0.92 | 0.796 | 0.696
x2 = 0.06 | 1 | – | –
x2 = 0.1038 | 1.1 | 0.937 | 0.805
x2 = 0.12 | 1.139 | – | –
x2 = 0.17 | 1.297 | – | –
x2 = 0.2244 | 1.468 | 1.221 | 1.029
x2 = 0.23 | 1.47 | – | –
x2 = 0.3266 | 1.867 | 1.527 | 1.255
x2 = 0.44 | 2.483 | – | –
x2 = 0.54 | 3.124 | – | –
x2 = 0.5645 | 3.223 | 2.495 | 1.946
x2 = 0.64 | 3.847 | – | –
x2 = 0.7021 | 4.311 | 3.197 | 2.447
x2 = 0.83 | 5.58 | – | –
x2 = 0.8568 | 5.746 | 4.172 | 3.118

ClC(Cl)(Cl)Cl + CCCCCCCO
viscosity [mPa·s], 101 kPa
Conditions | 298.15 K | 308.15 K | 318.15 K
x2 = 0.0559 | 0.969 | 0.832 | 0.725
x2 = 0.07 | 0.982 | – | –
x2 = 0.13 | 1.102 | – | –
x2 = 0.147 | 1.151 | 1.004 | 0.867
x2 = 0.19 | 1.237 | – | –
x2 = 0.25 | 1.402 | – | –
x2 = 0.2529 | 1.453 | 1.227 | 1.052
x2 = 0.3189 | – | 1.321 | 1.096
x2 = 0.3828 | 1.836 | 1.489 | 1.231
x2 = 0.47 | 2.175 | – | –
x2 = 0.57 | 2.716 | – | –
x2 = 0.6371 | 3.08 | 2.329 | 1.851
x2 = 0.67 | 3.302 | – | –
x2 = 0.7713 | 3.949 | 2.943 | 2.256
x2 = 0.816 | 4.238 | 3.167 | 2.422
x2 = 0.84 | 4.527 | – | –

ClC(Cl)(Cl)Cl + CCCCCCO
viscosity [mPa·s], 101 kPa
Conditions | 298.15 K | 308.15 K | 318.15 K
x2 = 0.0092 | 0.909 | 0.786 | 0.691
x2 = 0.0374 | 0.941 | 0.817 | 0.71
x2 = 0.07 | 0.961 | – | –
x2 = 0.0912 | 1 | 0.865 | 0.745
x2 = 0.14 | 1.058 | – | –
x2 = 0.1545 | 1.11 | 0.938 | 0.806
x2 = 0.2095 | 1.197 | 1.008 | 0.861
x2 = 0.21 | 1.167 | – | –
x2 = 0.27 | 1.299 | – | –
x2 = 0.293 | 1.368 | 1.127 | 0.942
x2 = 0.3554 | 1.533 | 1.255 | 1.046
x2 = 0.496 | 1.965 | 1.564 | 1.273
x2 = 0.5 | 1.931 | – | –
x2 = 0.6 | 2.317 | – | –
x2 = 0.6252 | 2.531 | 1.957 | 1.548
x2 = 0.69 | 2.737 | – | –
x2 = 0.7459 | 3.091 | 2.344 | 1.814
x2 = 0.86 | 3.57 | – | –
x2 = 0.8652 | 3.83 | 2.863 | 2.202
